Source: patent US12129235B2, “TSPO binders” (The University Court of the University of Glasgow, priority 2018, dated 2024)

Experiment: Dosimetry from whole-body mouse PET, OLINDA/EXM adult human phantom
Format: in vivo, mice
Conditions: for Effective Dose / Estimated Absorbed Dose, Adrenals / Estimated Absorbed Dose, Brain / Estimated Absorbed Dose, Breasts / Estimated Absorbed Dose, Gallbladder Wall / Estimated Absorbed Dose, Heart Wall / Estimated Absorbed Dose, Kidneys / Estimated Absorbed Dose, LLI Wall / Estimated Absorbed Dose, Liver / Estimated Absorbed Dose, Lungs / Estimated Absorbed Dose, Muscle / Estimated Absorbed Dose, Osteogenic Cells / Estimated Absorbed Dose, Ovaries / Estimated Absorbed Dose, Pancreas / Estimated Absorbed Dose, Red Marrow / Estimated Absorbed Dose, Skin / Estimated Absorbed Dose, Small Intestine / Estimated Absorbed Dose, Spleen / Estimated Absorbed Dose, Stomach Wall / Estimated Absorbed Dose, Thymus / Estimated Absorbed Dose, Thyroid / Estimated Absorbed Dose, Total Body / Estimated Absorbed Dose, ULI Wall / Estimated Absorbed Dose, Urinary Bladder Wall / Estimated Absorbed Dose, Uterus / Estimated Absorbed Dose, Testes: adult human phantom
Procedure: 13 PET scans were performed with ^18F-LW223 (mean injected radioactivity of 19.55±2.1 MBq). Scans were acquired following i.v. bolus injection of ^18F-LW223 via tail vein or femoral vein shunt (invasive kinetic modelling experiments with β-probe automatic blood sampler) in rats. Test-retest scans were obtained in three rats following i.v. bolus of the radiotracer, with two weeks interval between test and retest imaging sessions. […] These scans were compared to baseline scans where no PK11195 was used. For displacement studies, rats received i.v. administration of ^18F-LW223 and scanned continuously for 120 min. […] A male and female mouse were initially used to derive the dosimetry estimates for ^18F-LW223 over a 4 h dynamic scan, followed by additional mice in a further study (in a study with a mean injected radioactivity of 10.83±5.6 MBq).
The following organs were identified as source organs: brain, heart, lungs, gallbladder, liver, gut, adrenals, kidneys and bladder. A whole-body VOI was drawn around the animal body and was used for quantification of whole-body remainder activity as whole-body activity minus source organs activity. At each time point, the measured activity of the source organs was expressed as the percent injected dose (% ID).
The residence time T, defined as the ratio of accumulated activity in the target organ (A) and injected activity (A0); τ=Ā/A0, was calculated as the area under the curve of the tissue time-activity curve normalized to % ID from time zero to infinity. The trapezoidal method was used for estimating T and after the last measured time point, it was assumed that the radiotracer underwent only physical decay with no biological elimination from the source organ. Calculated T were normalized for differences in mouse and human organ weights as a percentage of total body weight (based on data known from Khanuja et al.; Bielohuby et al.; Stabin et al.; Hindorf et al.; and Hui et al.), and entered into OLINDA/EXM 1.0 software, which was used to estimate organ doses and effective doses according to the male or female model implemented in OLINDA/EXM 1.0.

[1] = Female, additional work with further mice
[2] = Male, additional work with further mice

In the case of CC[C@@H](C)N(C)C(=O)c1nc2ccccc2c(-c2ccccc2)c1C[18F] [^18F-LW223, (R)-(N-sec-Butyl)-3-[19-fluoro]-methyl-N-methyl-4-phenylquinoline-2-carboxamide], the “Effective Dose” value [1] is reported as 2.37E−02 mSv/MBq, the “Estimated Absorbed Dose, Adrenals” value [1] is reported as 3.54E−02 mGy/MBq and the “Estimated Absorbed Dose, Brain” value [1] is reported as 5.49E−03 mGy/MBq. For the same compound, the “Estimated Absorbed Dose, Breasts” value [1] was 8.51E−03 mGy/MBq, the “Estimated Absorbed Dose, Gallbladder Wall” value [1] was 2.40E−02 mGy/MBq and the “Estimated Absorbed Dose, Heart Wall” value [1] was 1.80E−02 mGy/MBq. For the same compound, the “Estimated Absorbed Dose, Kidneys” value [1] was 1.48E−02 mGy/MBq, the “Estimated Absorbed Dose, LLI Wall” value [1] was 8.94E−02 mGy/MBq and the “Estimated Absorbed Dose, Liver” value [1] was 1.88E−02 mGy/MBq. The “Estimated Absorbed Dose, Lungs” value [1] was 3.10E−02 mGy/MBq, the “Estimated Absorbed Dose, Muscle” value [1] was 9.70E−03 mGy/MBq and the “Estimated Absorbed Dose, Osteogenic Cells” value [1] was 1.52E−02 mGy/MBq. For the same compound, the “Estimated Absorbed Dose, Ovaries” value [1] was 1.63E−02 mGy/MBq, the “Estimated Absorbed Dose, Pancreas” value [1] was 1.25E−02 mGy/MBq and the “Estimated Absorbed Dose, Red Marrow” value [1] was 9.72E−03 mGy/MBq. The “Estimated Absorbed Dose, Skin” value [1] was 7.33E−03 mGy/MBq, the “Estimated Absorbed Dose, Small Intestine” value [1] was 1.29E−02 mGy/MBq and the “Estimated Absorbed Dose, Spleen” value [1] was 1.10E−02 mGy/MBq. The “Estimated Absorbed Dose, Stomach Wall” value [1] was 1.14E−02 mGy/MBq, the “Estimated Absorbed Dose, Thymus” value [1] was 1.06E−02 mGy/MBq and the “Estimated Absorbed Dose, Thyroid” value [1] was 8.89E−03 mGy/MBq. For the same compound, the “Estimated Absorbed Dose, Total Body” value [1] was 1.06E−02 mGy/MBq, the “Estimated Absorbed Dose, ULI Wall” value [1] was 1.24E−02 mGy/MBq and the “Estimated Absorbed Dose, Urinary Bladder Wall” value [1] was 1.49E−02 mGy/MBq. For the same compound, the “Estimated Absorbed Dose, Uterus” value [1] was 1.28E−02 mGy/MBq, the “Effective Dose” value (Female, initial mouse study) was 1.84E−02 mSv/MBq and the “Estimated Absorbed Dose, Adrenals” value (Female, initial mouse study) was 4.38E−02 mGy/MBq. For the same compound, the “Estimated Absorbed Dose, Brain” value (Female, initial mouse study) was 8.38E−03 mGy/MBq, the “Estimated Absorbed Dose, Breasts” value (Female, initial mouse study) was 1.16E−02 mGy/MBq and the “Estimated Absorbed Dose, Gallbladder Wall” value (Female, initial mouse study) was 2.80E−02 mGy/MBq. For the same compound, the “Estimated Absorbed Dose, Heart Wall” value (Female, initial mouse study) was 3.96E−02 mGy/MBq, the “Estimated Absorbed Dose, Kidneys” value (Female, initial mouse study) was 2.67E−02 mGy/MBq and the “Estimated Absorbed Dose, LLI Wall” value (Female, initial mouse study) was 1.61E−02 mGy/MBq. The “Estimated Absorbed Dose, Liver” value (Female, initial mouse study) was 2.04E−02 mGy/MBq, the “Estimated Absorbed Dose, Lungs” value (Female, initial mouse study) was 4.52E−02 mGy/MBq and the “Estimated Absorbed Dose, Muscle” value (Female, initial mouse study) was 1.27E−02 mGy/MBq. For the same compound, the “Estimated Absorbed Dose, Osteogenic Cells” value (Female, initial mouse study) was 2.01E−02 mGy/MBq, the “Estimated Absorbed Dose, Ovaries” value (Female, initial mouse study) was 1.71E−02 mGy/MBq and the “Estimated Absorbed Dose, Pancreas” value (Female, initial mouse study) was 1.68E−02 mGy/MBq. For the same compound, the “Estimated Absorbed Dose, Red Marrow” value (Female, initial mouse study) was 1.25E−02 mGy/MBq, the “Estimated Absorbed Dose, Skin” value (Female, initial mouse study) was 9.71E−03 mGy/MBq and the “Estimated Absorbed Dose, Small Intestine” value (Female, initial mouse study) was 3.97E−02 mGy/MBq. The “Estimated Absorbed Dose, Spleen” value (Female, initial mouse study) was 1.51E−02 mGy/MBq, the “Estimated Absorbed Dose, Stomach Wall” value (Female, initial mouse study) was 1.54E−02 mGy/MBq and the “Estimated Absorbed Dose, Thymus” value (Female, initial mouse study) was 1.47E−02 mGy/MBq. The “Estimated Absorbed Dose, Thyroid” value (Female, initial mouse study) was 1.19E−02 mGy/MBq, the “Estimated Absorbed Dose, Total Body” value (Female, initial mouse study) was 1.40E−02 mGy/MBq and the “Estimated Absorbed Dose, ULI Wall” value (Female, initial mouse study) was 1.89E−02 mGy/MBq. For the same compound, the “Estimated Absorbed Dose, Urinary Bladder Wall” value (Female, initial mouse study) was 1.51E−02 mGy/MBq, the “Estimated Absorbed Dose, Uterus” value (Female, initial mouse study) was 1.67E−02 mGy/MBq and the “Effective Dose” value [2] was 2.05E−02 mSv/MBq. For the same compound, the “Estimated Absorbed Dose, Adrenals” value [2] was 2.22E−02 mGy/MBq, the “Estimated Absorbed Dose, Brain” value [2] was 5.89E−03 mGy/MBq and the “Estimated Absorbed Dose, Breasts” value [2] was 7.18E−03 mGy/MBq. The “Estimated Absorbed Dose, Gallbladder Wall” value [2] was 2.01E−02 mGy/MBq, the “Estimated Absorbed Dose, Heart Wall” value [2] was 2.03E−02 mGy/MBq and the “Estimated Absorbed Dose, Kidneys” value [2] was 1.57E−02 mGy/MBq. For the same compound, the “Estimated Absorbed Dose, LLI Wall” value [2] was 7.82E−02 mGy/MBq, the “Estimated Absorbed Dose, Liver” value [2] was 1.30E−02 mGy/MBq and the “Estimated Absorbed Dose, Lungs” value [2] was 3.10E−02 mGy/MBq. The “Estimated Absorbed Dose, Muscle” value [2] was 8.04E−03 mGy/MBq, the “Estimated Absorbed Dose, Osteogenic Cells” value [2] was 1.20E−02 mGy/MBq and the “Estimated Absorbed Dose, Pancreas” value [2] was 1.03E−02 mGy/MBq. For the same compound, the “Estimated Absorbed Dose, Red Marrow” value [2] was 8.22E−03 mGy/MBq, the “Estimated Absorbed Dose, Skin” value [2] was 6.09E−03 mGy/MBq and the “Estimated Absorbed Dose, Small Intestine” value [2] was 1.11E−02 mGy/MBq. The “Estimated Absorbed Dose, Spleen” value [2] was 9.11E−03 mGy/MBq, the “Estimated Absorbed Dose, Stomach Wall” value [2] was 9.42E−03 mGy/MBq and the “Estimated Absorbed Dose, Testes” value [2] was 7.70E−03 mGy/MBq. For the same compound, the “Estimated Absorbed Dose, Thymus” value [2] was 8.97E−03 mGy/MBq, the “Estimated Absorbed Dose, Thyroid” value [2] was 7.90E−03 mGy/MBq and the “Estimated Absorbed Dose, Total Body” value [2] was 8.85E−03 mGy/MBq. The “Estimated Absorbed Dose, ULI Wall” value [2] was 9.96E−03 mGy/MBq, the “Estimated Absorbed Dose, Urinary Bladder Wall” value [2] was 1.16E−02 mGy/MBq and the “Effective Dose” value (Male, initial mouse study) was 1.53E−02 mSv/MBq. For the same compound, the “Estimated Absorbed Dose, Adrenals” value (Male, initial mouse study) was 3.72E−02 mGy/MBq, the “Estimated Absorbed Dose, Brain” value (Male, initial mouse study) was 7.01E−03 mGy/MBq and the “Estimated Absorbed Dose, Breasts” value (Male, initial mouse study) was 9.21E−03 mGy/MBq. For the same compound, the “Estimated Absorbed Dose, Gallbladder Wall” value (Male, initial mouse study) was 2.42E−02 mGy/MBq, the “Estimated Absorbed Dose, Heart Wall” value (Male, initial mouse study) was 3.07E−02 mGy/MBq and the “Estimated Absorbed Dose, Kidneys” value (Male, initial mouse study) was 2.38E−02 mGy/MBq. The “Estimated Absorbed Dose, LLI Wall” value (Male, initial mouse study) was 1.28E−02 mGy/MBq, the “Estimated Absorbed Dose, Liver” value (Male, initial mouse study) was 1.56E−02 mGy/MBq and the “Estimated Absorbed Dose, Lungs” value (Male, initial mouse study) was 3.57E−02 mGy/MBq. For the same compound, the “Estimated Absorbed Dose, Muscle” value (Male, initial mouse study) was 1.02E−02 mGy/MBq, the “Estimated Absorbed Dose, Osteogenic Cells” value (Male, initial mouse study) was 1.54E−02 mGy/MBq and the “Estimated Absorbed Dose, Ovaries” value (Male, initial mouse study) was 1.40E−02 mGy/MBq. The “Estimated Absorbed Dose, Pancreas” value (Male, initial mouse study) was 1.35E−02 mGy/MBq, the “Estimated Absorbed Dose, Red Marrow” value (Male, initial mouse study) was 1.02E−02 mGy/MBq and the “Estimated Absorbed Dose, Skin” value (Male, initial mouse study) was 7.82E−03 mGy/MBq. For the same compound, the “Estimated Absorbed Dose, Small Intestine” value (Male, initial mouse study) was 3.38E−02 mGy/MBq, the “Estimated Absorbed Dose, Spleen” value (Male, initial mouse study) was 1.19E−02 mGy/MBq and the “Estimated Absorbed Dose, Stomach Wall” value (Male, initial mouse study) was 1.23E−02 mGy/MBq. The “Estimated Absorbed Dose, Testes” value (Male, initial mouse study) was 9.46E−03 mGy/MBq, the “Estimated Absorbed Dose, Thymus” value (Male, initial mouse study) was 1.16E−02 mGy/MBq and the “Estimated Absorbed Dose, Thyroid” value (Male, initial mouse study) was 1.02E−02 mGy/MBq. For the same compound, the “Estimated Absorbed Dose, Total Body” value (Male, initial mouse study) was 1.12E−02 mGy/MBq, the “Estimated Absorbed Dose, ULI Wall” value (Male, initial mouse study) was 1.52E−02 mGy/MBq and the “Estimated Absorbed Dose, Urinary Bladder Wall” value (Male, initial mouse study) was 1.37E−02 mGy/MBq. The critical organ (additional work with further mice) was “lower intestinal wall”, the whole-body effective dose (female phantom, additional work with further mice (Table 2)) was 23.7 μSv/MBq and the whole-body effective dose (female phantom, initial mouse study (Table 1)) was 18.4 μSv/MBq. The critical organ (initial mouse study) was “adrenal gland”, the whole-body effective dose (male phantom, additional work with further mice (Table 2)) was 20.5 μSv/MBq and the whole-body effective dose (male phantom, initial mouse study (Table 1)) was 15.3 μSv/MBq.
